Source: ChEMBL document CHEMBL5528039, “Discovery of a Macrocyclic Influenza Cap-Dependent Endonuclease Inhibitor” (J Med Chem, 2024)
Active and inactive are the calls of the source. No cut-off for these calls is given here.

What was measured:
[1] = Prodrug conversion in BALB/c mouse assessed as (7aS,16R)-2,3-difluoro-10-hydroxy-8-methyl-16-phenyl-6,7,7a,8-tetrahydro-16H-benzo[b]pyrido[1',2':1,6][1,2,4]triazino[2,3-e][1,5]oxazocine-9,11-dione Cmax at 10 mg/kg, po measured after 24 hrs by LC-MS/MS analysis; format: ADME, organism-based; conditions: in vivo
[2] = Prodrug conversion in BALB/c mouse assessed as (7aS,16R)-2,3-difluoro-10-hydroxy-8-methyl-16-phenyl-6,7,7a,8-tetrahydro-16H-benzo[b]pyrido[1',2':1,6][1,2,4]triazino[2,3-e][1,5]oxazocine-9,11-dione half-life at 10 mg/kg, po measured after 24 hrs by LC-MS/MS analysis; format: ADME, organism-based; conditions: in vivo
[3] = Prodrug conversion in BALB/c mouse assessed as (7aS,16R)-2,3-difluoro-10-hydroxy-8-methyl-16-phenyl-6,7,7a,8-tetrahydro-16H-benzo[b]pyrido[1',2':1,6][1,2,4]triazino[2,3-e][1,5]oxazocine-9,11-dione AUC (0 to last) at 10 mg/kg, po measured after 24 hrs by LC-MS/MS analysis; format: ADME, organism-based; conditions: in vivo
[4] = Prodrug conversion in Beagle dog assessed as (7aS,16R)-2,3-difluoro-10-hydroxy-8-methyl-16-phenyl-6,7,7a,8-tetrahydro-16H-benzo[b]pyrido[1',2':1,6][1,2,4]triazino[2,3-e][1,5]oxazocine-9,11-dione Cmax at 1 mg/kg, po measured after 24 hrs by LC-MS/MS analysis; format: ADME, organism-based, Canis lupus familiaris; conditions: in vivo
[5] = Prodrug conversion in Beagle dog assessed as (7aS,16R)-2,3-difluoro-10-hydroxy-8-methyl-16-phenyl-6,7,7a,8-tetrahydro-16H-benzo[b]pyrido[1',2':1,6][1,2,4]triazino[2,3-e][1,5]oxazocine-9,11-dione half-life at 1 mg/kg, po measured after 24 hrs by LC-MS/MS analysis; format: ADME, organism-based, Canis lupus familiaris; conditions: in vivo
[6] = Prodrug conversion in Beagle dog assessed as (7aS,16R)-2,3-difluoro-10-hydroxy-8-methyl-16-phenyl-6,7,7a,8-tetrahydro-16H-benzo[b]pyrido[1',2':1,6][1,2,4]triazino[2,3-e][1,5]oxazocine-9,11-dione AUC (0 to last) at 1 mg/kg, po measured after 24 hrs by LC-MS/MS analysis; format: ADME, organism-based, Canis lupus familiaris; conditions: in vivo
[7] = Prodrug conversion in cynomolgus monkey assessed as (7aS,16R)-2,3-difluoro-10-hydroxy-8-methyl-16-phenyl-6,7,7a,8-tetrahydro-16H-benzo[b]pyrido[1',2':1,6][1,2,4]triazino[2,3-e][1,5]oxazocine-9,11-dione Cmax at 1 mg/kg, po measured after 24 hrs by LC-MS/MS analysis; format: ADME, organism-based, Macaca fascicularis; conditions: in vivo
[8] = Prodrug conversion in cynomolgus monkey assessed as (7aS,16R)-2,3-difluoro-10-hydroxy-8-methyl-16-phenyl-6,7,7a,8-tetrahydro-16H-benzo[b]pyrido[1',2':1,6][1,2,4]triazino[2,3-e][1,5]oxazocine-9,11-dione half-life at 1 mg/kg, po measured after 24 hrs by LC-MS/MS analysis; format: ADME, organism-based, Macaca fascicularis; conditions: in vivo
[9] = Prodrug conversion in cynomolgus monkey assessed as (7aS,16R)-2,3-difluoro-10-hydroxy-8-methyl-16-phenyl-6,7,7a,8-tetrahydro-16H-benzo[b]pyrido[1',2':1,6][1,2,4]triazino[2,3-e][1,5]oxazocine-9,11-dione AUC (0 to last) at 1 mg/kg, po measured after 24 hrs by LC-MS/MS analysis; format: ADME, organism-based, Macaca fascicularis; conditions: in vivo
[10] = system: Influenza A virus; assay: Antiviral activity against Influenza A virus A/PR/8/34 infected in BALB/c mouse assessed as reduction in body weight loss at 5 to 30 mg/kg, po pre-infected with virus for 48 hrs followed by twice daily compound administration starting from day 2 and measured on day 5; format: functional, organism-based; conditions: dose 5-30 mg/kg, time 72.0 hrs
[11] = system: Influenza A virus; assay: Antiviral activity against Influenza A virus A/PR/8/34 infected in BALB/c mouse assessed as reduction in viral load in lungs at 5 to 30 mg/kg, po pre-infected with virus for 48 hrs followed by twice daily compound administration starting from day 2 and measured 1 hrs after last dose on day 5 by crystal violet staining based analysis; format: functional, organism-based; conditions: dose 5-30 mg/kg, time 73.0 hrs
[12] = system: Influenza B virus; assay: Antiviral activity against Influenza B virus B/Lee/40 infected in BALB/c mouse assessed as reduction in body weight loss at 0.5 to 5 mg/kg, po pre-infected with virus for 24 hrs followed by twice daily compound administration from day 1 to 7 and measured on day 14; format: functional, organism-based; conditions: dose 0.5-5 mg/kg, time 14.0 day
[13] = system: Influenza B virus; assay: Antiviral activity against Influenza B virus B/Lee/40 infected in BALB/c mouse assessed as reduction in improvement in survival rate at 0.5 to 5 mg/kg, po pre-infected with virus for 24 hrs followed by twice daily compound administration from day 1 to 7 and measured on day 14; format: functional, organism-based; conditions: dose 0.5-5 mg/kg, time 14.0 day
[14] = (§1) Prodrug conversion in BALB/c mouse infected with Influenza B virus B/Lee/40 assessed as (7aS,16R)-2,3-difluoro-10-hydroxy-8-methyl-16-phenyl-6,7,7a,8-tetrahydro-16H-benzo[b]pyrido[1',2':1,6][1,2,4]triazino[2,3-e][1,5]oxazocine-9,11-dione formation at 0.5 to 5 mg/kg, po pre-infected with virus for 24 hrs followed by twice daily compound administration from day 1 to 7 and measured on day 14 by LC-MS/MS analysis; format: ADME, organism-based; conditions: in vivo, 336 h, dose 0.5-5 mg/kg, time 14 day
[15] = as §1, with “formation by measuring Ctau” for “formation”, “at” for “at 0.5 to”; format: ADME, organism-based; conditions: in vivo, 336 h, time 14 day

COC(=O)OCOc1c2n(ccc1=O)N1[C@H](c3ccccc3)c3cc(F)c(F)cc3OCC[C@H]1N(C)C2=O
Cmax [1]: 309 nM | t1/2 [2]: 1.3 h | AUClast [3]: 0.93 µM·h | Cmax [4]: 171 nM | t1/2 [5]: 4.4 h | AUClast [6]: 0.724 µM·h | Cmax [7]: 163 nM | t1/2 [8]: 3.6 h | AUClast [9]: 0.785 µM·h | Activity [10]: Active | Activity [11]: Active | Activity [12]: Active | Activity [13]: Active | Drug metabolism [14]: Metabolite_Detected | Ctau [15]: > 16 nM
